In ChEMBL document CHEMBL1201862, “PubChem BioAssay data set” (2004):
Active and inactive are the calls of the source. Cut-off read from the data, not from the text of the source: actives have a measured IC50 and inactives only a lower limit.

Target: Envelope glycoprotein gp160 (Human immunodeficiency virus 1, UniProt Q6QLK5)
Assay: inhibitors of HIV fusion peptide binding, primary screen, biochemical, uHTS, fluorescence dequenching (AID 1986)

Envelope glycoprotein gp160, sequence (Q6QLK5 whole entry, the tested form may be a part): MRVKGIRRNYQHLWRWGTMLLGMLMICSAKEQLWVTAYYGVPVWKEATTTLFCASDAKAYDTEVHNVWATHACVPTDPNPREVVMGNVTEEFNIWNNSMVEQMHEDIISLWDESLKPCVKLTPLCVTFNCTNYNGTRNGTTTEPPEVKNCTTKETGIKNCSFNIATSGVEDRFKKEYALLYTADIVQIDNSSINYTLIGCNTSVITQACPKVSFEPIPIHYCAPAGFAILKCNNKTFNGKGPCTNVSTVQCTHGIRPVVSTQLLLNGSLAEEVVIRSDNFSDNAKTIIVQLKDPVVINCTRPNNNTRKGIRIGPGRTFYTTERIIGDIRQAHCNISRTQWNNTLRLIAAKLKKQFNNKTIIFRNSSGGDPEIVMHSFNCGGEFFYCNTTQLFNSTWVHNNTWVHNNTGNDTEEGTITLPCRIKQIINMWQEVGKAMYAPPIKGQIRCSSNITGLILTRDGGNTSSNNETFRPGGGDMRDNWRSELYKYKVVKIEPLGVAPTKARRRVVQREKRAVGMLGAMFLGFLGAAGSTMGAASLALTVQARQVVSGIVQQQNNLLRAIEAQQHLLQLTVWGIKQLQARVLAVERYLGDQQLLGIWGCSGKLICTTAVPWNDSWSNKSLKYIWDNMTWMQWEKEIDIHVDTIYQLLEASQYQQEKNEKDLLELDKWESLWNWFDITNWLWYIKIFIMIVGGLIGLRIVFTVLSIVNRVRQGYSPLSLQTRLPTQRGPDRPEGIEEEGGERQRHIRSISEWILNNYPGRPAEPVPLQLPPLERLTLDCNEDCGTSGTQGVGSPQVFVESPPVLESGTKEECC

COc1ccc(NC(=O)c2cnn3c(O)cc(C4CCN(C(=O)OC(C)(C)C)CC4)nc23)cc1Cl
IC50: 16.6 µM (active)

O=C(O)CSCC(=O)N(Cc1ccccc1)c1nc(-c2ccccc2)c(-c2ccccc2)s1
IC50: 13.3 µM (active)
